Data on one compound can be found in patent publication US20180353457A1, “ABIETANE DITERPENOID 7-ACETOXYROYLEANONES FOR USE IN CANCER TREATMENT” (University of South Carolina, priority 2017, published 2018).

Data set [1] relates to MDA-MB-435 (melanoma) cells. Description: NCI-60 five dose screen, MDA-MB-435. Conditions: read-out: LC50; MDA-MB-435, Melanoma.
For data set [2], the system named is DU-145 (prostate cancer) cells. Description: NCI-60 five dose screen, DU-145. The settings on record: read-out: LC50; DU-145, Prostate.
For data set [3] the following is noted: read-out: LC50; melanoma cell line SK-OV-3 (so in the source), most sensitive to cell death.
In data set [4] the test system is MG-63 (osteosarcoma) cells. Description: MTS cytotoxicity assay, MG-63. Type of data set: cell-based. The settings on record: MG-63 cells, 48 and 72 hours of exposure. From the text: (§1) Human cell lines used included MG-63 (osteosarcoma), SK-OV-3 (ovarian adenocarcinoma), MDA-MB-231 (breast adenocarcinoma derived from a metastatic site), HCT 116 (colorectal carcinoma), HCT 116/200 (an FdUrd resistant subclone of HCT 116 cells), and A2780ADR (a doxorubicin resistant subclone of the ovarian carcinoma A2780). All cells were stored in liquid nitrogen until use. MG-63, SK-OV-3, MDA-MB-231, and HCT 116 cell lines were all obtained from ATCC. A2780ADR cells were obtained from Sigma-Aldrich. HCT 116/200 cells were obtained from Dr. Franklin G. Berger from the Center for Colon Cancer Research. MG-63 cells were maintained in MEM medium (Corning) supplemented with 10% Fetal Bovine Essence (VWR) and 1% penicillin/streptomycin solution (Corning). SK-OV-3 cells were maintained in McCoy's 5A Medium (Sigma) supplemented with Fetal Bovine Essence and 1% penicillin/streptomycin. […]
(§2) Cells were first grown to approximately 80% confluency within […] tissue culture flasks (VWR). […] Cells were counted using a hemocytometer and their viability was confirmed using trypan blue (Gibco). […]
(§3) In combination studies, 7-acetoxyroyleanone and FdUrd were first mixed into the same media and then added to the cells. […] The cells were incubated for 2 hours, and the absorbance of each well at 490 nm was measured using a Spectramax 190 microplate reader.
In general terms: Tetrazolium assays rely on reduction of a dye to a coloured formazan, in cell work by metabolically active cells.

The subject of data set [5] is SK-OV-3 (ovarian adenocarcinoma) cells. Put plainly: MTS cytotoxicity assay, SK-OV-3. Type of data set: cell-based. Conditions: SK-OV-3 cells.
From the text: as §1, §2, §3

With `CC(=O)O[C@@H]1C[C@H]2C(C)(C)CCC[C@]2(C)C2=C1C(=O)C(C(C)C)=C(O)C2=O` [7-acetoxyroyleanone], the CC50 in data set [1] came to 5.87 µM; in data set [2], 5.67 µM; in data set [3], 4.34 µM. In addition, the “cytotoxicity (percent viability)” value is on record as “significant cytotoxic properties” in data set [4]; “significant cytotoxic properties” in data set [5] (48 and 72 hours of exposure, MTS). In addition, the “cell death at the lowest concentration tested” value in data set [5] (1 μg/mL) is given as “cell death was indicated”.
